Read-outs that look alike come from different tables or passages of the source.

Data set [1] deals with Staphylococcus aureus NCTC 6571. The data set can be described thus: Agar plate multi-point inoculation, colour. The class given is cell-based.
For data set [2], the system named is Candida albicans ATCC 90028. The class given is cell-based. The note with it: Columbia agar, FAC 500 mg/L, substrate 300 mg/L, 37° C. 18 h in air.
Data set [3] deals with Staphylococcus aureus (MRSA) NCTC 11939. The data set can be described thus: Agar plate multi-point inoculation, colour. The class given is cell-based. To be noted: Columbia agar, FAC 500 mg/L, substrate 300 mg/L, 37° C. 18 h in air.
Data set [4] concerns Burkholderia cepacia NCTC 10931. The data set can be described thus: Agar plate multi-point inoculation, colour. The note with it: Columbia agar, FAC 500 mg/L, substrate 300 mg/L, 37° C. 18 h in air. The format is cell-based.
The test system of data set [5] is Escherichia coli NCTC 10418. The data set can be described thus: Agar plate multi-point inoculation, colour. The class given is cell-based.
Data set [6] has as its system Staphylococcus epidermidis NCTC 11047. The data set can be described thus: Agar plate multi-point inoculation, colour. The class given is cell-based.
Data set [7] has as its system Bacillus subtilis NCTC 9372. The data set can be described thus: Agar plate multi-point inoculation, colour. The class given is cell-based.
The test system of data set [8] is Yersinia enterocolitica NCTC 11176. The data set can be described thus: Agar plate multi-point inoculation, colour. The format is cell-based. The note with it: Columbia agar, FAC 500 mg/L, substrate 300 mg/L, 37° C. 18 h in air.
In data set [9] the test system is Steptococcus pyogenes NCTC 8306. The data set can be described thus: Agar plate multi-point inoculation, colour. The format is cell-based.
Data set [10] has as its system Pseudomonas aeruginosa NCTC 10662. The data set can be described thus: Agar plate multi-point inoculation, colour. The class given is cell-based.
For data set [11], the system named is Providencia rettgeri NCTC 7475. The data set can be described thus: Agar plate multi-point inoculation, colour. The format is cell-based.
For data set [12], the system named is Salmonella typhimurium NCTC 74. The data set can be described thus: Agar plate multi-point inoculation, colour. The class given is cell-based.
The subject of data set [13] is Serratia marcescens NCTC 10211. The data set can be described thus: Agar plate multi-point inoculation, colour. The format is cell-based.
Data set [14] deals with Listeria monocytogenes NCTC 11994. The data set can be described thus: Agar plate multi-point inoculation, colour. The class given is cell-based.
The test system of data set [15] is Enterococcus faecalis NCTC 775. The data set can be described thus: Agar plate multi-point inoculation, colour. The format is cell-based.
In data set [16] the test system is Candida glabrata NCPF 3943. The data set can be described thus: Agar plate multi-point inoculation, colour. The format is cell-based.
The subject of data set [17] is Enterococcus faecium NCTC 7171. The data set can be described thus: Agar plate multi-point inoculation, colour. The format is cell-based.
In data set [18] the test system is Enterobacter cloacae NCTC 11936. The data set can be described thus: Agar plate multi-point inoculation, colour. The format is cell-based.
Data set [19] has as its system Acinetobacter baumannii NCTC 19606. The data set can be described thus: Agar plate multi-point inoculation, colour. The class given is cell-based.
Data set [20] relates to Klebsiella pneumoniae NCTC 9528. The data set can be described thus: Agar plate multi-point inoculation, colour. The class given is cell-based.
Data set [21] concerns Citrobacter freundii NCTC 9750 or 46262. The data set can be described thus: Agar plate multi-point inoculation, colour. The format is cell-based. The note with it: Columbia agar, FAC 500 mg/L, substrate 300 mg/L, 37° C. 18 h in air.
For data set [22], the system named is Burkholderia cepacia 1222. The data set can be described thus: Agar plate multi-point inoculation, colour. The note with it: Columbia agar, FAC 500 mg/L, substrate 300 mg/L, 37° C. 18 h in air. The format is cell-based.
Data set [23] has as its system Morganella morganii 462403 (wild). The data set can be described thus: Agar plate multi-point inoculation, colour. The format is cell-based. To be noted: Columbia agar, FAC 500 mg/L, substrate 300 mg/L, 37° C. 18 h in air.
The subject of data set [24] is Gram-positive or Gram-negative strains. The data set can be described thus: Toxicity / growth of microorganisms on substrate agar plates. The format is cell-based. To be noted: substrate 300 mg/L. Here is the method: This compound was tested on agar plates by multi-point inoculation. The plates were made from Columbia agar (Oxoid, Basingstoke, UK) (100 ml) supplemented with ferric ammonium citrate (FAC) (50 mg). After the agar had been autoclaved (121° C.) and cooled to 50° C., a filter sterilized solution of the substrate (8) (30 mg) dissolved in N-methylpyrrolidone (NMP) (200 μL) was added, thus giving a substrate concentration of 300 mg/L. After pouring, the plates were inoculated with a range of microorganisms and incubated at 37° C. for 18 h in air (Table 1).
In the publication of Zincke and Fries, the authors reported that treatment of 1,4,6,7-tetrabromo-DHN (20) with tin (II) chloride led to the removal of the bromines in the 1 and 4 positions. Their work was repeated and the expected 6,7-dibromo-DHN (21) was obtained smoothly and in good yield (68%). 6,7-Dibromo-DHN (21) is isomeric with the 1,4-dibromo compound which had proven unsuccessful as an aglycone for the detection of microorganisms. Notwithstanding this latter fact, we proceeded to evaluate the properties of 6,7-dibromo-DHN […] as an aglycone for artificial chromogenic enzyme substrates. […]

For another data set, the system named is range of microorganisms. The data set can be described thus: Agar plate evaluation with a range of microorganisms (hue, diffusion, background). The class given is cell-based. The note with it: for colour (hue) after hydrolysis: agar plates with FAC.
The mark [25] stands for this setting: Columbia agar, FAC 500 mg/L, substrate 300 mg/L, 37° C. 18 h in air.

For `CCCCCCCC(=O)Oc1cc2ccccc2cc1OC(=O)CCCCCCC` [Compound 16, DHN-dicaprylate], the Colour result in data set [1] (setting [25]), in data set [2], in data set [3], in data set [4], in data set [5] (setting [25]) and in data set [6] (setting [25]) was “−” throughout. Moreover, the Colour result is “−” in data set [7] (setting [25]); “−” in data set [8]; “−” in data set [9] (setting [25]); “+” in [10] (setting [25]); “+” in [11] (setting [25]); “−” in data set [12] (setting [25]). For the same compound, the Colour result in data set [13] (setting [25]) is given as “+”; in [14] (setting [25]), “−”; in [15] (setting [25]), “−”; in data set [16] (setting [25]), “−”; in data set [17] (setting [25]), “−”; in data set [18] (setting [25]) it was “−”. Also, the Colour result is “+” in data set [19] (setting [25]) and “−” in data set [20] (setting [25]).

As to `O=P([O-])([O-])Oc1cc2ccccc2cc1O.[Na+].[Na+]` [Compound 17, DHN-phosphate Disodium Salt], the Colour result is “+” in data set [1]; “−” in data set [2]; “+” in data set [3]; “+/−” in data set [4]; “+/−” in [5]; “−” in [6]. For the same compound, the Colour entry in data set [7] is reported as “−”; in [8], “+/−”; in data set [9], “−”; in data set [10], “−”; in data set [11], “+”; in data set [12], “++”. Further, the Colour entry in [13] is “++”; in data set [14], “+”; in [15], “−”; in data set [16], “−”; in [17] it was “−”; in data set [18], “+/−”. Besides, the Colour entry is given as “−” in data set [19] and “++” in [20].

In the case of `OCC1OC(Oc2cc3ccccc3cc2O)C(O)C(O)C1O` [Compound 4, DHN-β-D-glucopyranoside], the melting point was > 210 °C (dec.). Also, the Colour result in data set [1] (setting [25]) was “−”. The Colour entry in [2] is given as “−”. Also, the Colour entry in [3] is on record as “−”. Besides, in data set [4], the Colour entry was “−”. The Colour result in [5] (setting [25]) is listed as “Tr”. Further, the Colour result in [6] (setting [25]) was “−”. Moreover, in data set [7] (setting [25]), the Colour entry was “+”. Besides, the Colour entry in [8] is on record as “−”. Moreover, the Colour result in data set [9] (setting [25]) was “−”. Besides, the Colour result in data set [10] (setting [25]) is recorded as “−”. For the same compound, the Colour result in [11] (setting [25]) was “++”. For the same compound, the Colour entry in [12] (setting [25]) is reported as “−”. The Colour result in data set [13] (setting [25]) is “++”. For the same compound, the Colour entry in data set [14] (setting [25]) is recorded as “+”. For the same compound, in [15] (setting [25]), the Colour result was “+”. In addition, the Colour result in [16] (setting [25]) is “−”. Also, the Colour result in data set [17] (setting [25]) was “+”. Besides, in [18] (setting [25]), the Colour result is “+”. Besides, in [19] (setting [25]), the Colour result is “−”. Besides, the Colour entry in data set [20] (setting [25]) is listed as “++”.

As for `OC[C@H]1O[C@@H](Oc2cc3cc(Br)c(Br)cc3cc2O)C(O)C1O` (stereo partly drawn) [Compound 23, 6,7-Dibromo-DHN-β-D-ribofuranoside], the Colour entry in data set [21] is on record as “++”; in data set [1] (setting [25]) it was “−”; in [2], “−”; in data set [3], “−”; in data set [22], “+/−”; in data set [23], “++”. Moreover, the Colour entry in data set [5] (setting [25]) is on record as “−”; in [6] (setting [25]) it was “−”; in [7] (setting [25]) it was “−”; in data set [8] it was “−”; in data set [9] (setting [25]), “−”; in [10] (setting [25]) it was “+”. The Colour result in [11] (setting [25]) was “−”; in data set [12] (setting [25]), “++”; in data set [13] (setting [25]) it was “++”; in data set [14] (setting [25]) it was “−”; in data set [15] (setting [25]) it was “−”; in data set [16] (setting [25]), “−”. The Colour entry in [17] (setting [25]) is recorded as “−”; in data set [18] (setting [25]), “++”. Moreover, the “growth of Gram-positive bacteria” value in data set [24] is “mainly suppressed”. Moreover, the “colour (hue) after hydrolysis” value in the data set with range of microorganisms was “largely discrete red-brown or maroon colonies”.

For the compound `OCC1OC(Oc2cc3ccccc3cc2O)C(O)C(O)C1O` [Compound 8, DHN-β-D-galactopyranoside], the melting point was > 230 °C (dec.). For the same compound, in data set [1] (setting [25]), the Colour entry is recorded as “−”. The Colour result in data set [2] was “−”. Also, the Colour result in [3] was “−”. Also, the Colour result in [4] is listed as “−”. Moreover, the Colour entry in data set [5] (setting [25]) is given as “++”. Further, the Colour result in data set [6] (setting [25]) is “−”. In addition, in data set [24], the “toxicity to strains tested” value is “no obvious toxicity”. Further, the Colour entry in [7] (setting [25]) is listed as “−”. In addition, in the data set with range of microorganisms, the “colour (hue) after hydrolysis” value is on record as “strong purple-maroon colour”. Further, the “formation of coloured chelate” value in the data set with range of microorganisms (plates incubated under anaerobic conditions) is reported as “still formed”. Also, the “sensitivity after autoclaving substrate in agar” value in the data set on range of microorganisms (substrate added prior to autoclaving, 121° C. for 20 minutes) is “no decrease in sensitivity”. In addition, the Colour entry in data set [8] is “−”. Moreover, the Colour result in data set [9] (setting [25]) is on record as “−”. In addition, in [10] (setting [25]), the Colour result is “−”. Also, the Colour result in [11] (setting [25]) is recorded as “−”. Also, in data set [12] (setting [25]), the Colour entry was “−”. In data set [13] (setting [25]), the Colour result was “+”. Moreover, the Colour result in data set [14] (setting [25]) is given as “−”. Also, the Colour result in data set [15] (setting [25]) is given as “−”. Besides, the Colour result in data set [16] (setting [25]) is on record as “−”. In addition, in [17] (setting [25]), the Colour result is on record as “Tr”. Besides, the Colour entry in data set [18] (setting [25]) was “++”. For the same compound, the Colour entry in data set [19] (setting [25]) was “−”. Also, the Colour entry in [20] (setting [25]) is “++”.

Broadly, the melting point is the temperature of the solid-liquid transition.

The record behind these values is patent publication US9938562B2, “Naphthalene derived chromogenic enzyme substrates” (Glycosynth Limited, priority 2013, dated 2018).
